Data on 14 compounds can be found in US9334271B2, “Purine derivatives and their use in the treatment of disease” (Novarits AG, priority 2012, dated 2016).

The target of one experiment is recombinant human mTOR (Homo sapiens (Human), UniProt P42345). Kind of experiment: Test 1: mTOR ATP-binding assay based on TR-FRET. Conditions: GST-tagged truncated human mTOR, tracer-314, TR-FRET. The method, then:
Test 1: mTOR ATP-Binding Assay Based on TR-FRET for Recombinant Human mTOR
2. The final volume of the assay is 10 μL and the order of addition is as follows:
50 nL of compounds dilution;
Incubated for 60 minutes at room temperature.
TR-FRET measured in Biotek Synergy2 reader at: • Excitation 340 nm/emission 665 nm • Excitation 340 nm/emission 620 nm
The following final concentrations are used:
1 nM Europium anti-GST antibody;
The following controls are used:
3. IC50 determinations may be performed as follows:
The Emission ratio is converted to percentage of inhibition for each compound concentration. IC50 values are calculated by fitting a sigmoidal dose-response curve to a plot of assay readout over compound concentration. All fits and analysis are performed with the program XLfit4 (ID Business Solutions, Guildford, UK).

Experiment [1] has as its system cellular mTOR kinase activity (phosphorylation of Thr 389 of S6K1) in TSC1-/- MEFs. Kind of experiment: Test 2: Cellular mTOR assay (P-P70S6K T389 Surefire). Type of experiment: cell-based. Conditions: Mus musculus. The method, then:
Test 2: Cellular mTOR Assay
30 μl are added per well to a 384 well-plate using a Multidrop instrument (Thermo scientific), resulting in 4000 cells/well. The plates are incubated at 37° C./5% CO2 for 20 hours (to allow for settling and adherance to the surface).
Eight 3-fold serial dilutions of test-compounds (beginning at 1.8 mM) are prepared in 90% DMSO and compiled on 384 well master plates (Greiner). A pan-pPI3K/mTOR inhibitor (0.8 mM of 8-(6-methoxy-pyridin-3-yl)-3-methyl-1-(4-piperazin-1-yl-3-trifluoromethyl-phenyl)-1,3-dihydro-imidazo[4,5-c]quinolin-2-one in 90% DMSO) is added to the wells for the low control. 90% DMSO is added to the wells for the high controls. Compounds are provided as 250 nl shots (Hummingbird) in 384 well-polypropylene microplates (compound plates). 50 μl of growth medium is added to the compound plates (dilution 1:200) with the Multidrop. After shaking (1 min at 2000 rpm), 10 μl of the first dilution is then transferred to the cell plate with a Matrix Plate Mate 2×3 pipettor (final dilution 1:4). After 1 hour of treatment, medium is removed from the plate and 20 μl of Surefire lysis buffer is added per well with the Multidrop.
Cell lysates are frozen for 15 minutes, thawed with shaking and transferred to the experimental 384 well-Proxiplate (5 μl/well) for the P-P70S6K (T389) Surefire assay (Perkin Elmer #TGR70S50). The first mix is composed of the reaction buffer (containing the specific antibody), the activation buffer and the acceptor beads (40 vol, 10 vol and 1 vol respectively). 5 μl per well is added to the lysates with a Zephyr® SPE Workstation (Caliper Life Sciences) and incubated for 2 hours with shaking at room temperature. After this incubation time, the second mix of dilution buffer and donor beads (20 vol and 1 vol respectively) is added to the plate with the same instrument (2 μl/well). After 2 hours, the plate can be read with an EnVision® Multilabel Reader (Perkin Elmer). Since the beads are light sensitive, their transfer and incubation is executed in a dark room (greenlight).
The raw data is used to generate dose response curves for test compounds and IC50 values calculated therefrom.

In the next experiment the test system is H4 mCherry-GFP-LC3 cells. Kind of experiment: Test 3: Autophagy assay (mCherry-GFP-LC3 reporter, high-content imaging). Conditions: 16-18 h treatment, mCherry-positive LC3 puncta/cell; for EC50: Homo sapiens. Type of experiment: cell-based, human. An excerpt:
Autophagy is a catabolic pathway that degrades bulk cytosol in lysosomal compartments enabling amino acids and fatty acids to be recycled. One of the key regulators of autophagy is the mammalian target of rapamycin (mTOR), a conserved serine/threonine kinase which suppresses the initiation of the autophagic process when nutrients, growth factors and energy are available. To quantify autophagy induction by mTOR inhibitors, we use a mCherry-GFP-LC3 reporter which is amenable to retroviral delivery into mammalian cells, stable expression and analysis by fluorescence microscopy.
The amino acid sequence of the mCherry-GFP-LC3 construct is shown below (SEQ ID NO: 1). The mCherry sequence is underlined, GFP sequence is in bold and LC3A sequence is boxed.
Described hereinafter is an imaging protocol and image recognition algorithm to visualize and measure changes in the autophagic pathway.
Quantification of Autophagy Using High-Content Imaging and Analysis
• 1. Day 0: Cell plating. Subconfluent H4 mCherry-GFP-LC3 cells are harvested by trypsinization, resuspended in growth medium, and counted (H4 cells: Human neuroglioma cell line (ATCC)). A cell suspension of 66′000 cells/mL is prepared and 30 μL are added into the wells of a 384-well plate using an electronic multichannel pipette. […] The cell plates are briefly spun down and placed at 37° C. and 5% CO2. • 2. Day 1: Compound treatment. Compound dose responses are prepared in DMSO. The dose responses are then diluted 1:50 in medium. 10 ul of the diluted compound is added to 30 ul of cells, yielding a final 1:200 dilution of the original compound and final of 0.5% DMSO. Compound-treatments are performed in triplicates. The 384-well plates are placed at 37° C. and 5% CO2. Compound treatment is performed for 16-18 h (see Note 1). • 3. Day 2: Cell fixation. Cells are fixed by adding 10 μL/well 5× concentrated Mirsky's fixative supplemented with 25 μg/mL Hoechst33342. […] The 384-well plate is briefly spun down and incubated for 1 h at room temperature. Cells are then washed using a 384-well plate washer using a protocol which aspirates the volume down to 10 μL/well before dispensing 100 μL/well 1×TBS. Aspiration and dispensing steps are repeated 4 times and a final volume of 100 μL/well is left. The plate is sealed using an adhesive PCR foil. • 4. Imaging. The bottom of the plate is cleaned with 70% ethanol and then imaged using the InCell 1000 automated epifluorescence microscope. 20× magnification is used and 4 different areas (fields) are imaged per well, this typically captures a total of around 400 cells per well. Hoechst33342 images are acquired using an excitation of 360 nm (D360_40x filter), an emission of 460 nm (HQ460_40M filter) and an exposure time of 150 ms. GFP images are acquired using an excitation of 475 nm (S475_20x filter), an emission of 535 nm (HQ535_50M filter) and an exposure time of 1 s. mCherry images are acquired using an excitation of 535 nm (HQ535_50x filter), an emission of 620 nm (HQ620_60M filter) and an exposure time of 1 s. A quadruple band pass mirror is used for all images. • 5. Image analysis. The InCell Analysis software is used to analyze the images using the Multi Target Analysis algorithm. First, nuclei are detected in the Hoechst33342 image using top-hat segmentation and a minimal nuclear area of 50 μm^2. Cells are defined using a collar of 10 μm around the nuclei. Second, puncta (organelles) are identified in the mCherry image inside the cells using multi-top-hat segmentation. Third, the mask of the mCherry puncta is transferred onto the GFP image. Fourth, the GFP fluorescence intensity inside the mCherry puncta mask is measured (reference intensity). • 6. The ‘organelles’ parameter reflects mCherry-positive puncta of the mCherry-GFP-LC3 reporter and is used to calculate ‘LC3 puncta/cell’. […]

The mark [2] stands for this setting: 1 h, read-out: Test 2: T389 cellular assay IC50 (nM).
Setting [3] is: TSC1-/- MEFs, 1 hour treatment, P-P70S6K (T389), read-out: Test 2: T389 cellular assay IC50.

Read-outs that look alike come from different tables or passages of the source. Some results are limits rather than exact numbers.

recombinant human mTOR, sequence (P42345 1360-2549): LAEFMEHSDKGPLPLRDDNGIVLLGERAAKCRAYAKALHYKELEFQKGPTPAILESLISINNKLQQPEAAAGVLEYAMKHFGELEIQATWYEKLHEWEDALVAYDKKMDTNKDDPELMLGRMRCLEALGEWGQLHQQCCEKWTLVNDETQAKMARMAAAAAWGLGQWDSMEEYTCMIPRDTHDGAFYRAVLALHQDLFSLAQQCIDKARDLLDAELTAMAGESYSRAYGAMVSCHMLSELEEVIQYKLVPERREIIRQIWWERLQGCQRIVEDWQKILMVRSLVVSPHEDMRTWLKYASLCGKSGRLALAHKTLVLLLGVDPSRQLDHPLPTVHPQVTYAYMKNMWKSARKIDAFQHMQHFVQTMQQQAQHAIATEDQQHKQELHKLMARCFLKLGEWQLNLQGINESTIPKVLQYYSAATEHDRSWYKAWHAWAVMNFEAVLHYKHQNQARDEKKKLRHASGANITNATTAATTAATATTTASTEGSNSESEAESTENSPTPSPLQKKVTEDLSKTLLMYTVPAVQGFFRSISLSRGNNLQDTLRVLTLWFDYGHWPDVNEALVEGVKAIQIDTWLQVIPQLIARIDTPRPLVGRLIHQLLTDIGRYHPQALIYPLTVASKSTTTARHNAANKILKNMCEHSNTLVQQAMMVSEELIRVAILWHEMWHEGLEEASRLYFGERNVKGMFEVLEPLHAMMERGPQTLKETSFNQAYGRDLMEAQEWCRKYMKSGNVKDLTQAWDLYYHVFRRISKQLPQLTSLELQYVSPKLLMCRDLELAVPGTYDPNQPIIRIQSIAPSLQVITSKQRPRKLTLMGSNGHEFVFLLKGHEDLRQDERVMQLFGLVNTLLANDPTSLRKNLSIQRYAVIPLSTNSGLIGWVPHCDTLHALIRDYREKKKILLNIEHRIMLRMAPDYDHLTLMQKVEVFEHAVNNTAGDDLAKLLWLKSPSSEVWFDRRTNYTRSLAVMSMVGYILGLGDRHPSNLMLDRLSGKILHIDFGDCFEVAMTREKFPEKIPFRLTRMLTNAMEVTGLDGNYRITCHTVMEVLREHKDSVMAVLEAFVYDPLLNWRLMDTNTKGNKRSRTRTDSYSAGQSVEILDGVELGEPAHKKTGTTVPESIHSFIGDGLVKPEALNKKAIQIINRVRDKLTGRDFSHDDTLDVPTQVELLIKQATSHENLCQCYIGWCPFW

`C[C@@H]1CN(c2nc(N3CCOC[C@H]3C)c3nc(-c4cccc5[nH]ccc45)[nH]c3n2)C[C@H](C)O1` [Example 23, 2-((2S,6R)-2,6-Dimethyl-morpholin-4-yl)-8-(1H-indol-4-yl)-6-((R)-3-methyl-morpholin-4-yl)-9H-purine]: the values for the IC50 (on recombinant human mTOR; in experiment [1] (setting [2])) were 78 nM and 104 nM, respectively. For the same compound, in the experiment with H4 mCherry-GFP-LC3 cells, the “Test 3: Autophagy EC50 (nM)” value is recorded as “n.m”.

As to `C[C@H]1COCCN1c1nc(N2CCOC[C@@H]2C)c2nc(-c3cc[nH]n3)[nH]c2n1` [Example 10, 2,6-Bis-((S)-3-methyl-morpholin-4-yl)-8-(1H-pyrazol-3-yl)-9H-purine], the half-maximal inhibitory concentration (IC50) at recombinant human mTOR was found to be 343 nM; in experiment [1] (setting [3]) it was 135 nM. For the same compound, in the experiment on H4 mCherry-GFP-LC3 cells, it took 1440 nM to reach a half-maximal effect (EC50).

`C[C@@H]1COCCN1c1nc(N2CCN(C)CC2)nc2[nH]c(-c3cccc4[nH]ccc34)nc12` [Example 16, 8-(1H-Indol-4-yl)-6-((R)-3-methyl-morpholin-4-yl)-2-(4-methyl-piperazin-1-yl)-9H-purine]: the IC50 on recombinant human mTOR is 308 nM; in experiment [1] (setting [2]), 259 nM. For the same compound, in the experiment with H4 mCherry-GFP-LC3 cells, the “Test 3: Autophagy EC50 (nM)” value was “n.m”.

Take `C[C@@H]1COCCN1c1nc(N2CCOC[C@H]2C)c2nc(-c3cc(CO)cc4[nH]ccc34)[nH]c2n1` [Example 6, {4-[2,6-Bis-((R)-3-methyl-morpholin-4-yl)-9H-purin-8-yl]-1H-indol-6-yl}-methanol]: the values for the IC50 (at recombinant human mTOR; in experiment [1] (setting [2])) were 66 nM and 1180 nM, respectively. In the experiment with H4 mCherry-GFP-LC3 cells, this compound came in with an EC50 of 423 nM.

Take `C[C@@H]1COCCN1c1nc(N2CCOC[C@H]2C)c2nc(-c3ccc(-c4ncc[nH]4)cc3)[nH]c2n1` [Example 4, 8-[4-(1H-Imidazol-2-yl)-phenyl]-2,6-bis-((R)-3-methyl-morpholin-4-yl)-9H-purine]: the IC50 was 2120 nM on recombinant human mTOR and 1550 nM in experiment [1] (setting [3]). Further, a half-maximal response in the experiment on H4 mCherry-GFP-LC3 cells (EC50) required 2160 nM.

Consider `C[C@H]1COCCN1c1nc(N2CCOC[C@@H]2C)c2nc(-c3ccc(-c4ncc[nH]4)cc3)[nH]c2n1` [Example 30, 8-[4-(1H-Imidazol-2-yl)-phenyl]-2,6-bis-((S)-3-methyl-morpholin-4-yl)-9H-purine], for which the half-maximal inhibitory concentration (IC50) is 364 nM at recombinant human mTOR and 1140 nM in experiment [1] (setting [3]). The compound also registered an EC50 in the experiment with H4 mCherry-GFP-LC3 cells of 1460 nM.

With `COC(=O)c1cc(-c2nc3c(N4CCOC[C@H]4C)nc(N4CCOC[C@H]4C)nc3[nH]2)c2cc[nH]c2c1` [Example 32, 4-[2,6-Bis-((R)-3-methyl-morpholin-4-yl)-9H-purin-8-yl]-1H-indole-6-carboxylic acid methyl ester], the IC50 came to 533 nM at recombinant human mTOR and 1120 nM in experiment [1] (setting [2]). Also, the concentration giving a half-maximal response (EC50) in the experiment on H4 mCherry-GFP-LC3 cells is over 6000 nM.

For the compound `C[C@@H]1COCCN1c1nc(N2CCOC[C@H]2C)c2nc(-c3cnc(N)nc3)[nH]c2n1` [Example 29, 5-[2,6-Bis-((R)-3-methyl-morpholin-4-yl) 9H-purin-8-yl]-pyrimidin-2-yl-amine], the IC50 at recombinant human mTOR is 1310 nM; in experiment [1] (setting [2]), 498 nM. The compound also returned an EC50 in the experiment with H4 mCherry-GFP-LC3 cells of 3610 nM.

Consider `CC[C@@H]1COCCN1c1nc(N2CCOC[C@H]2C)c2nc(-c3cccc4[nH]ccc34)[nH]c2n1` [Example 15, 2-((R)-3-Ethyl-morpholin-4-yl)-8-(1H-indol-4-yl)-6-((R)-3-methyl-morpholin-4-yl)-9H-purine], for which the IC50 on recombinant human mTOR worked out at 60 nM; in experiment [1] (setting [2]) it was 194 nM. Further, in the experiment with H4 mCherry-GFP-LC3 cells, the midpoint of the response, the EC50, lay at 752 nM.

For `COc1cc(-c2nc3c(N4CCOC[C@H]4C)nc(N4CCOC[C@@H]4C)nc3[nH]2)c2cc[nH]c2c1` [Example 31, 8-(6-Methoxy-1H-indol-4-yl)-2-((S)-3-methyl-morpholin-4-yl)-6-((R)-3-methyl-morpholin-4-yl)-9H-purine], the concentration for half-maximal inhibition (IC50) at recombinant human mTOR was 28 nM; in experiment [1] (setting [2]), 71 nM. The EC50 in the experiment with H4 mCherry-GFP-LC3 cells came out at 145 nM.

Turning to `C[C@@H]1COCCN1c1nc(N2CCOC[C@H]2C)c2nc(-c3ccccn3)[nH]c2n1` [Example 1, 2,6-Bis-((R)-3-methyl-morpholin-4-yl)-8-pyridin-2-yl-9H-purine], the half-maximal inhibitory concentration (IC50) was 139 nM on recombinant human mTOR and 1010 nM in experiment [1] (setting [3]). The EC50 in the experiment on H4 mCherry-GFP-LC3 cells stood at 351 nM.

On to `C[C@@H]1COCCN1c1nc(N2CCCOCC2)nc2[nH]c(-c3cccc4[nH]ccc34)nc12` [Example 3, 8-(1H-Indol-4-yl)-6-((R)-3-methyl-morpholin-4-yl)-2-[1,4]oxazepan-4-yl-9H-purine], for which the IC50 turned out to be 164 nM at recombinant human mTOR and 76 nM in experiment [1] (setting [2]). Moreover, the 50% effective concentration (EC50) in the experiment with H4 mCherry-GFP-LC3 cells came out at 422 nM.

On to `C[C@@H]1COCCN1c1nc(N2CCC(C(F)(F)F)CC2)nc2[nH]c(-c3cccc4[nH]ccc34)nc12` [Example 22, 8-(1H-Indol-4-yl)-6-((R)-3-methyl-morpholin-4-yl)-2-(4-trifluoromethyl-piperidin-1-yl)-9H-purine], for which the IC50 on recombinant human mTOR turned out to be 1510 nM; in experiment [1] (setting [2]), 1040 nM. Besides, the 50% effective concentration (EC50) in the experiment on H4 mCherry-GFP-LC3 cells is 1680 nM.

`C[C@@H]1COCCN1c1nc(N2CCOC[C@H]2C)c2nc(-c3ccc(N)nc3)[nH]c2n1` [Example 28, 5-[2,6-Bis-((R)-3-methyl-morpholin-4-yl)-9H-purin-8-yl]-pyridin-2-ylamine]: the results for the 50% inhibitory concentration (IC50) (on recombinant human mTOR; in experiment [1] (setting [2])) were 754 nM and 272 nM, respectively. The compound further displayed a half-maximal effective concentration (EC50) in the experiment with H4 mCherry-GFP-LC3 cells of 2370 nM.
